The record followed here is patent EP4471048A1, “PEPTIDE INHIBITORS OF INTERLEUKIN-23 RECEPTOR” (Zealand Pharma A/S, priority 2023, dated 2024).

Each structure is given as a SMILES string. pIC50, pKi: −log10 of the molar value. Where two headings read alike, the source gives them in different places. *1 amine or outer side, *2 acyl side, *3 side chain or, on linkers, in order; H or OH if unused. Where a SMILES comes first, the peptide text is derived from it. Bridges are numbered along the chain shown (N, C = ends). [ ]: non-standard residue; d: D form. The star is where a group is joined. hAad = O=C([C@H](CCCCC(=O)[*:3])N[*:1])[*:2]; X7 = O=C(C[C@H](CCCN[*:3])N[*:2])[*:1]; 2Nal = N[C@@H](Cc1ccc2ccccc2c1)C(=O)O; AEF = NCCOc1ccc(C[C@H](N)C(=O)O)cc1; X1 = O=C(Cc1ccc(CN[*:1])cc1)[*:2]; 3Pal = N[C@@H](Cc1cccnc1)C(=O)O; αMeL = CC(C)C[C@](C)(N)C(=O)O; CH2COCH2 = O=C(C[*:1])C[*:2]; dDab = NCC[C@@H](N)C(=O)O; Pyrrolidide = C1CCN(*)C1; Dab = NCC[C@H](N)C(=O)O; X6 = O=C(CN[*:2])[*:1]

Assay [1] concerns the target IL-23 mediated signalling (Homo sapiens, UniProt Q5VWK5). Put plainly: Functional inhibition of IL-23 mediated STAT3 signalling (phospho-STAT3 MSD) in DB cells. Conditions: Table 3-2, DB cells, hIL-23 at EC80; for Emax: read-out: hIL-23 (pSTAT3) antagonist % inhibition; for pIC50: read-out: hIL-23 (pSTAT3) antagonist IC50. Format: cell-based. The source says: Upon binding of IL-23, the IL-23R forms a heterodimer signalling complex together with IL-12R β1, which through the JAK2/STAT3 pathway promotes phosphorylation of STAT3 to form phospho-STAT3.
For compounds tested in this assay, the response was normalized relative to control values to calculate the IC50 and maximal inhibitory response from a concentration response curve of the compound in presence of a fixed concentration of human IL-23.
The assay procedure was as follows. […] Following preincubation of the DB cells with inhibitor for 15 min in a cell incubator (37 °C, 5% CO2), 20 µL of the prepared 3X the EC80 of hIL-23 solution was added to each well and incubated for 90 min in a cell incubator (37 °C, 5% CO2). For some wells buffer only or IL-23 only corresponding to the EC80 was added to obtain readouts needed for normalization. To terminate the assay, the plate was spun at 1000 G for 5 min to pellet cells, the supernatant removed using an 8-channel manual pipette, and then added 50 µL/well Complete Lysis Buffer from the MSD STAT3 kit (Cat# K150SVD, Mesoscale) to the cell pellet. To completely lyse cells to release phospho-STAT3 for detection, the plate was shaken for 10 min at room temperature (500 rpm) sealed with aluminium foil and placed at -80 °C for a minimum of 15 min. Detection of the phospho-STAT3 level in the cell lysate from the individual wells was determined using the MSD STAT3 kit (Cat# K150SVD, Mesoscale) and read on a Meso QuickPlex SQ 120 plate reader (Mesoscale).
For data analysis raw data counts from the Meso QuickPlex SQ 120 plate reader were normalized relative to the response by the EC80 of h1L-23 alone (no compound added) and the buffer level. Compound potency (IC50) and maximal inhibitory response (% inhibition) were estimated by computer-aided curve fitting using a 4-parameter logistic (4PL) nonlinear model. […] Table 3-2: hIL-23 (pSTAT3) antagonist IC50 and % inhibition

The target of a further assay is T1, human IL-23R (Homo sapiens, UniProt Q5VWK5).
T1 sequence (Q5VWK5 22-629): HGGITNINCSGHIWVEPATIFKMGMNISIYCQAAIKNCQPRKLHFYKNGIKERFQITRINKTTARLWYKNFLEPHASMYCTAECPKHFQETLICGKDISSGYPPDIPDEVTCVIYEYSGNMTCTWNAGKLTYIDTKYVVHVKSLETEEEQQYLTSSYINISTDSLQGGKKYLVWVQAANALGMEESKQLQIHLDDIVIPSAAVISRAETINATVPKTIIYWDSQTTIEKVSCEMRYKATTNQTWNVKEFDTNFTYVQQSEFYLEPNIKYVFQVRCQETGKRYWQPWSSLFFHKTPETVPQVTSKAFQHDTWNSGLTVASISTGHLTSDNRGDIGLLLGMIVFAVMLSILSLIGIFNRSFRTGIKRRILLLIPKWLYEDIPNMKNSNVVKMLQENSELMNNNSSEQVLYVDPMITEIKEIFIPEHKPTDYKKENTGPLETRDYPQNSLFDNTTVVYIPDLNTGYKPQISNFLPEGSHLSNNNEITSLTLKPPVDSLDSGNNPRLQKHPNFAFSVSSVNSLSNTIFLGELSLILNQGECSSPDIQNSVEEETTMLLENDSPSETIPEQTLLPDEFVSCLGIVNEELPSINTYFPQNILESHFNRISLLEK
Briefly: biochemical. Conditions: for Emax: read-out: % displacement (hIL-23R NIuc). In short, it runs like this: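 Membranes from HEK293 cells stably expressing Nluc-tagged human IL-23R were incubated 2 h at room temperature with test compound and a fluorophore-labelled tracer. After substrate addition, loss of BRET (TAMRA over luciferase emission) reported tracer displacement. A 4PL fit gave IC50 values.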

In general, pIC50 refers to −log10 of the IC50, conventionally taken in molar units. On to `CNC(=O)[C@H](Cc1cccnc1)NC(=O)[C@H](CCN)NC(=O)[C@@H]1CCCCNC(=O)CC[C@@H]2NC(=O)CC[C@H](NC(=O)[C@H](CCC(N)=O)NC(=O)[C@H](Cc3c[nH]c4ccccc34)NC(=O)[C@H]([C@@H](C)O)NC2=O)C(=O)N[C@@H](Cc2ccc(OCCN)cc2)C(=O)N[C@@H](Cc2ccc3ccccc3c2)C(=O)N[C@@](C)(CC(C)C)C(=O)N1` [Compound 39, E(1c)(6c)^†TWQE(6c)[Y(2-aminoethoxy)][2-Nal][2-Me-Leu]K(1c)[Dab][3-(3-Pyridyl)-Ala]-[NHMe]] (ETWQE[AEF][2Nal][αMeL]K[Dab][3Pal]-NHMe; lactam 1-9, N-5), for which, in assay [1] (maximal inhibitory response), the Emax came out at 99%. Also, on human IL-23R, the “% displacement (hIL-23R NIuc)” value came out at 98% and the pIC50 is 9.19.
Consider `CC(C)C[C@]1(C)NC(=O)[C@H](Cc2ccc3ccccc3c2)NC(=O)[C@H](Cc2ccc(OCCN)cc2)NC(=O)[C@@H]2CCC(=O)N[C@@H](CCCNC(=O)CC[C@@H](C(=O)N[C@@H](CCN)C(=O)N[C@@H](Cc3cccnc3)C(N)=O)NC1=O)CC(=O)N[C@@H]([C@@H](C)O)C(=O)N[C@@H](C(C)C)C(=O)N[C@@H](Cc1c[nH]c3ccccc13)C(=O)N[C@@H](CCC(N)=O)C(=O)N2` [Compound 12, [bLys](1c)(6c)^†TVWQE(6c)[Y(2-aminoethoxy)][2-Nal][2-Me-Leu]E(1c)[Dab][3-(3-Pyridyl)-Ala]-[NH2]] (TVWQE[AEF][2Nal][αMeL]E[Dab][3Pal]-NH2; linker N-5-9 via X7), for which the Emax in assay [1] (maximal inhibitory response) worked out at 100%. In addition, the “% displacement (hIL-23R NIuc)” value at human IL-23R came to 104%.
For `CNC(=O)[C@H](Cc1cccnc1)NC(=O)[C@H](CCN)NC(=O)[C@@H]1CCC(=O)NCC(=O)NCCCC[C@@H]2NC(=O)CC[C@H](NC(=O)[C@H](CCC(N)=O)NC(=O)[C@H](Cc3c[nH]c4ccccc34)NC2=O)C(=O)N[C@@H](Cc2ccc(OCCN)cc2)C(=O)N[C@@H](Cc2ccc3ccccc3c2)C(=O)N[C@@](C)(CC(C)C)C(=O)N1` [Compound 46, [K(G)](1c)(6c)^†WQE(6c)[Y(2-aminoethoxy)][2-Nal][2-Me-Leu]E(1c)[Dab][3-(3-Pyridyl)-Ala]-[NHMe]] (KWQE[AEF][2Nal][αMeL]E[Dab][3Pal]-NHMe; linker 1-8 via X6; lactam N-4), the Emax in assay [1] (maximal inhibitory response) worked out at 102%. Besides, on human IL-23R, the pIC50 is 8.14 and the Emax amounted to 104%.
As usually defined, the pKi is −log10 of the Ki, conventionally taken in molar units. On to `CC(=O)N[C@H]1CCSC[C@@H](C(=O)N[C@@H](Cc2ccc(OCCN)cc2)C(=O)N[C@@H](Cc2c[nH]c3ccccc23)C(=O)N[C@@](C)(CCCCN)C(=O)N[C@@H](CCC(=O)O)C(=O)N[C@@H](CC(N)=O)C(=O)NCC(N)=O)NC(=O)[C@H](CCC(N)=O)NC(=O)[C@H](Cc2c[nH]c3ccccc23)NC(=O)[C@H]([C@@H](C)O)NC(=O)[C@H](CCC(N)=O)NC1=O` [Compound C, [Ac]-[Abu](16i)QTWQC(16i)[Y(2-aminoethoxy)]W[2-Me-Lys]ENG-[NH2], reference compound], for which the pIC50 in assay [1] was 7.89. The Emax in assay [1] (maximal inhibitory response) is 99%. Also, at human IL-23R, the “% displacement (hIL-23R NIuc)” value is 102%, the pIC50 was 8.59 and the negative logarithm of the Ki (pKi) is 8.68.
Turning to `CC(=O)N[C@H]1CCCCNC(=O)CC[C@@H](C(=O)N[C@@H](CCCNC(=N)N)C(N)=O)NC(=O)[C@H](CC(C)C)NC(=O)[C@H](Cc2ccc3ccccc3c2)NC(=O)[C@H](Cc2c[nH]c3ccccc23)NC(=O)[C@@H]2CSCC(=O)CSC[C@H](NC(=O)[C@H](CO)NC1=O)C(=O)N[C@@H](Cc1c[nH]c3ccccc13)C(=O)N[C@@H](CCC(N)=O)C(=O)N2` [Ref 18, [Ac]-K(1c)SC(2a)WQC(2a)W[2-Nal]LE(1c)R-[NH2], reference compound] (HELM PEPTIDE1{[ac].K.S.C.W.Q.C.W.[O=C([C@H](Cc1ccc2ccccc2c1)N[*:1])[*:2]].L.E.R.[am]}|CHEM1{[O=C(C[*:1])C[*:2]]}$PEPTIDE1,PEPTIDE1,2:R3-11:R3|PEPTIDE1,CHEM1,4:R3-1:R1|PEPTIDE1,CHEM1,7:R3-1:R2$$$V2.0), the pIC50 in assay [1] was 7.74. Further, the Emax in assay [1] (maximal inhibitory response) was 97%. In addition, on human IL-23R, the “% displacement (hIL-23R NIuc)” value is given as 103%, the pIC50 is 8.46 and the pKi was 8.55.
On to `CC(C)C[C@]1(C)NC(=O)[C@H](Cc2ccc3ccccc3c2)NC(=O)[C@H](Cc2ccc(OCCN)cc2)NC(=O)[C@@H]2CCC(=O)N[C@H](CCNC(=O)CCCC[C@@H](C(=O)N[C@@H](CCN)C(=O)N[C@@H](Cc3cccnc3)C(N)=O)NC1=O)C(=O)N[C@@H]([C@@H](C)O)C(=O)N[C@@H](C(C)C)C(=O)N[C@@H](Cc1c[nH]c3ccccc13)C(=O)N[C@@H](CCC(N)=O)C(=O)N2` [Compound 7, [{d}Dab](1c)(6c)^†TVWQE(6c)[Y(2-aminoethoxy)][2-Nal][2-Me-Leu][2-Amino-6-carboxyhexanoyl](1 c)[Dab][3-(3-Pyridyl)-Ala]-[NH2]] ([dDab]TVWQE[AEF][2Nal][αMeL][hAad][Dab][3Pal]-NH2; lactam 1-10, N-6), for which the Emax in assay [1] (maximal inhibitory response) is 99%. In addition, on human IL-23R, the “% displacement (hIL-23R NIuc)” value stood at 104% and the pIC50 was 10.77.
For `CC(C)C[C@]1(C)NC(=O)[C@H](Cc2ccc3ccccc3c2)NC(=O)[C@H](Cc2ccc(OCCN)cc2)NC(=O)[C@@H]2CC(=O)N[C@H](CCCCNC(=O)CC[C@@H](C(=O)N[C@@H](CCN)C(=O)N[C@@H](Cc3cccnc3)C(N)=O)NC1=O)C(=O)N[C@@H]([C@@H](C)O)C(=O)N[C@@H](C(C)C)C(=O)N[C@@H](Cc1c[nH]c3ccccc13)C(=O)N[C@@H](CCC(N)=O)C(=O)N2` [Compound 3, [{d}K](1c)(6c)^†TVWQD(6c)[Y(2-aminoethoxy)][2-Nal][2-Me-Leu]E(1c)[Dab][3-(3-Pyridyl)-Ala]-[NH2]] ([dK]TVWQD[AEF][2Nal][αMeL]E[Dab][3Pal]-NH2; lactam 1-10, N-6), the pIC50 in assay [1] is 8.82; at human IL-23R it was 10.04. Also, the Emax in assay [1] (maximal inhibitory response) was 101%; at human IL-23R, 105%.
For the molecule `CC(C)C[C@]1(C)NC(=O)[C@H](Cc2ccc3ccccc3c2)NC(=O)[C@H](Cc2ccc(OCCN)cc2)NC(=O)[C@@H]2CSCC(=O)CSC[C@H](NC(=O)[C@H](CO)NC(=O)Cc3ccc(cc3)CNC(=O)CC[C@@H](C(=O)N[C@@H](CCCNC(=N)N)C(N)=O)NC1=O)C(=O)N[C@@H](Cc1c[nH]c3ccccc13)C(=O)N[C@@H](CCC(N)=O)C(=O)N2` [Ref 52, [4-Aminomethyl-phenylacetyl](1c)*SC(2a)WQC(2a)[Y(2-aminoethoxy)][2-Nal][2-Me-Leu]E(1c)R-[NH2], reference compound] ([X1]SCWQC[AEF][2Nal][αMeL]ER-NH2; linker 3-6 via CH2COCH2; lactam N-10), the pIC50 in assay [1] was 8.11. For the same molecule, in assay [1] (maximal inhibitory response), the Emax came out at 103%. In addition, on human IL-23R, the “% displacement (hIL-23R NIuc)” value turned out to be 100%, the pIC50 is 10.24 and the pKi was 10.32.
In the case of `CC(C)C[C@]1(C)NC(=O)[C@H](Cc2ccc3ccccc3c2)NC(=O)[C@H](Cc2ccc(OCCN)cc2)NC(=O)[C@@H]2CCNC(=O)CC[C@H](NC(=O)[C@H](CO)NC(=O)Cc3ccc(cc3)CNC(=O)CC[C@@H](C(=O)N[C@@H](CCN)C(N)=O)NC1=O)C(=O)N[C@@H](Cc1c[nH]c3ccccc13)C(=O)N[C@@H](CCC(=O)N1CCCC1)C(=O)N2` [Ref 146, [4-Aminomethyl-phenylacetyl](1c)*SE(2c)W[Q(pyrrolidin)][Dab](2c)[Y(2-aminoethoxy)][2-Nal][2-Me-Leu]E(1c)[Dab]-[NH2], reference compound] ([X1]SEWE(Pyrrolidide)[Dab][AEF][2Nal][αMeL]E[Dab]-NH2; lactam 3-6, N-10), the “hIL-23 (pSTAT3) antagonist % inhibition” value in assay [1] (maximal inhibitory response) is reported as 98%. Moreover, the “% displacement (hIL-23R NIuc)” value at human IL-23R (Table 3-1, maximal displacement of TAMRA-labelled peptide) is on record as 105%.
